Experimental findings from patent US20110217771A1, “Fluidic Culture Device” (priority 2008, published 2011) are described below.

This experiment concerns the target T1, collagen I matrix (Bos taurus, UniProt P02453+P02465).
T1 construct: purchased PureCol (product name as printed)
Put plainly: Gradient generation and characterization in the collagen I matrix of the culture chamber (fluorescence detection). The method, then:
Invasive angiogenic sprouting in three dimensions was studied by embedding organs or clusters of cells in a collagen I matrix composed of Ham's F12 medium (Promocell), 6.26 mM NaOH, 20 mM HEPES, 0.117% NaHCO3, 1% Glutamax-I (Gibco) and 1.5 mg/ml collagen I (PureCol). The flow channels were sealed prior to casting of the gel by the insertion of PDMS plugs. These were cut out a little wider than the channels (˜7×5×0.6 mm) to prevent the gel from leaking into the flow channels. The gel volume (20 μl) deposited in the culture chamber was approximately twice the size of the chamber volume to account for shrinkage and to make sure that the when the culture system was assembled the gel would be slightly compressed in order to occupy the entire culture chamber. […] The collagen gel was left to polymerize in a regular cell incubator at 37° C. and 5% CO2 for 2 hours. Organs or cell clusters were deposited into the center of the culture chamber using a Pasteur pipette in the beginning of the polymerization process. The tissue can be carefully positioned with a needle or by tapping the side of the culture chamber. Both organs and cells can be grown in the fluidic culture device in its open configuration with the culture chamber facing upwards for several days by adding cell media to cover the top of the open culture chamber.
Stock solutions of recombinant VEGFA165 (PeproTech), FGF2 (PeproTech) and VEGFC (R&D systems) were stored at −20° C. until further use. […]
Flow in the culture system was generated by connecting two syringes (connected to a syringe pump) to the channel inlets. […] No flow was recorded through the culture chamber when the flow rates in the source and sink channels were kept identical.
The gradient profile was initially characterized by detection of F-VEGFA. […] FIG. 10 illustrates time-lapse series of the central part of the culture chamber (1.7×1.3 mm) as a gradient of F-VEGFA is established; gradient formation in the culture chamber was detected by measuring the fluorescent signal. […] The profiles are recorded at the center of the chamber, indicated by black bar in FIG. 12. […]

Setting [1] is: collagen I matrix, flow 0.5 μl/min.

T1 sequence (P02453 162-1217 limits assumed): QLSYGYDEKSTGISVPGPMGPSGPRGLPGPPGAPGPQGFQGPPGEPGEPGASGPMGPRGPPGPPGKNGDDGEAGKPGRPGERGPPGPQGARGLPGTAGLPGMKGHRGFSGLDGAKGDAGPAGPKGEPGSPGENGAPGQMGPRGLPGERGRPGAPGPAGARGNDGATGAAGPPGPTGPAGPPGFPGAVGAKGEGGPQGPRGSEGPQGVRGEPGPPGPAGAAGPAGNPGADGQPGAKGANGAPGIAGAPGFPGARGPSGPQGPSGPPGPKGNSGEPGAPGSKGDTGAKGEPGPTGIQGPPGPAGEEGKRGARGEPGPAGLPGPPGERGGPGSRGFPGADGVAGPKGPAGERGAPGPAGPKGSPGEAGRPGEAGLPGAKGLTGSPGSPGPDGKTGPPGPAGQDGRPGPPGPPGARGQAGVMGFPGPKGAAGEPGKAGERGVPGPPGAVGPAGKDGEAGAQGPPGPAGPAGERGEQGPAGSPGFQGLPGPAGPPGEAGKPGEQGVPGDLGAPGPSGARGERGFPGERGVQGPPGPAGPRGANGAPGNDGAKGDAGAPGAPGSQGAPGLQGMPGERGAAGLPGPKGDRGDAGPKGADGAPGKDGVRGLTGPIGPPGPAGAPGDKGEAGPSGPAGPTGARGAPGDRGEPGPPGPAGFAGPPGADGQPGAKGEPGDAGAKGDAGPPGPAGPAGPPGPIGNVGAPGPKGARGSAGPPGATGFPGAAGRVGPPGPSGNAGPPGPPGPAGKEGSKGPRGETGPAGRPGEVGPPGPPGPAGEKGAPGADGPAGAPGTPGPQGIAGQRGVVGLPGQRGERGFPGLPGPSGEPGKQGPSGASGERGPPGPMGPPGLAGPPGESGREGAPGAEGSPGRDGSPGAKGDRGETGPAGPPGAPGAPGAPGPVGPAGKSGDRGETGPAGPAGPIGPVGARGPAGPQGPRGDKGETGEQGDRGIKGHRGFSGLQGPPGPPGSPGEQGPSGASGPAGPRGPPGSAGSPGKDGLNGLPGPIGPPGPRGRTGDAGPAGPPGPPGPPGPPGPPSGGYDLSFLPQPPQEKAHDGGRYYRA
T1 sequence (P02465 80-1117 limits assumed): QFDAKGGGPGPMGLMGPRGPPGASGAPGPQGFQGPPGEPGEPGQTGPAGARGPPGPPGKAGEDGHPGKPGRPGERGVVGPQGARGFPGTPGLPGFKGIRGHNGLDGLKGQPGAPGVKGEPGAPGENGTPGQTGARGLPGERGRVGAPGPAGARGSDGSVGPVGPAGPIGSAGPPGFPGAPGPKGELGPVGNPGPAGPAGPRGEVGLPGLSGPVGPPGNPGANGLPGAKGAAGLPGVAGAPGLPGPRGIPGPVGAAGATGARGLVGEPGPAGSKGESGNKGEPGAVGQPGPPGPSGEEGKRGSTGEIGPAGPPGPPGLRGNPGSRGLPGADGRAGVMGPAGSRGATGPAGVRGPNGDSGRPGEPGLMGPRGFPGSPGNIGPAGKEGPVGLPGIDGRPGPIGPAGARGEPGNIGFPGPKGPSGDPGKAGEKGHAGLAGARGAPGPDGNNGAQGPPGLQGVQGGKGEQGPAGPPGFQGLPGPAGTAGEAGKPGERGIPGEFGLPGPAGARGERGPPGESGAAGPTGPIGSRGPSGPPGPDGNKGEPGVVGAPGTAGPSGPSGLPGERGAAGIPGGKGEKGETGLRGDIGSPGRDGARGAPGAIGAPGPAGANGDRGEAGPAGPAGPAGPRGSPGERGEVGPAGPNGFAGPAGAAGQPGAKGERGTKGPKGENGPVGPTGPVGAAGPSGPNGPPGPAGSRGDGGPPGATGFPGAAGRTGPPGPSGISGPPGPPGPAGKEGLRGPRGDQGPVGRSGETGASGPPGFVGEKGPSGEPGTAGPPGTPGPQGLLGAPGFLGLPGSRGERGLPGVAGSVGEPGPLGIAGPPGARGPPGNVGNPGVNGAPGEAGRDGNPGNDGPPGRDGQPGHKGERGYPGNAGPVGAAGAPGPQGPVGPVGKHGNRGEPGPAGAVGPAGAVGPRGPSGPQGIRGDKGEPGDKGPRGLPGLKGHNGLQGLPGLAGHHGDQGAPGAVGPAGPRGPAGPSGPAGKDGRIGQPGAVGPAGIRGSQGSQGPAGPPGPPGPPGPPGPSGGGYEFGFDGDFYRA

Consider FITC-dextran, for which the “affinity for collagen I (accumulation at the edge of the gel)” value (1.5 mg/ml collagen I matrix) is recorded as “little or no affinity for collagen I”. Under setting [1], the “time after which the gradient was stable” value is recorded as “approximately 6 hours” and the “time to formation of a linear gradient after onset of flow” value is no more than 2 h.
